Results taken from the NIST ThermoML archive (doi:10.1016/j.jct.2005.01.017).
Numbers after ± are expanded uncertainties.

Test: xn = mol fraction of the nth substance listed
Conditions: 101 kPa, Liquid

CC1COC(=O)O1 (stereo unspecified) [4-methyl-1,3-dioxolan-2-one] + Cc1ccccc1C
mass density (293.15 K, x2 = 0): 1200.25 ± 40 kg/m3 | mass density (293.15 K, x2 = 0.0538): 1176.67 ± 40 kg/m3 | mass density (293.15 K, x2 = 0.1287): 1145.43 ± 40 kg/m3 | mass density (293.15 K, x2 = 0.1843): 1123.36 ± 40 kg/m3 | mass density (293.15 K, x2 = 0.2358): 1103.71 ± 40 kg/m3 | mass density (293.15 K, x2 = 0.3149): 1074.93 ± 40 kg/m3 | mass density (293.15 K, x2 = 0.3559): 1060.64 ± 40 kg/m3 | mass density (293.15 K, x2 = 0.4247): 1037.54 ± 40 kg/m3 | mass density (293.15 K, x2 = 0.4792): 1020.01 ± 40 kg/m3 | mass density (293.15 K, x2 = 0.5345): 1002.84 ± 40 kg/m3 | mass density (293.15 K, x2 = 0.6031): 982.36 ± 40 kg/m3 | mass density (293.15 K, x2 = 0.6638): 964.97 ± 40 kg/m3 | mass density (293.15 K, x2 = 0.7213): 949.05 ± 40 kg/m3 | mass density (293.15 K, x2 = 0.7832): 932.49 ± 40 kg/m3 | mass density (293.15 K, x2 = 0.8529): 914.51 ± 40 kg/m3 | mass density (293.15 K, x2 = 0.9284): 895.76 ± 40 kg/m3 | mass density (303.15 K, x2 = 0): 1180.55 ± 40 kg/m3 | mass density (303.15 K, x2 = 0.0613): 1155.03 ± 40 kg/m3 | mass density (303.15 K, x2 = 0.1273): 1128.84 ± 40 kg/m3 | mass density (303.15 K, x2 = 0.1732): 1111.36 ± 40 kg/m3 | mass density (303.15 K, x2 = 0.2583): 1080.45 ± 40 kg/m3 | mass density (303.15 K, x2 = 0.3341): 1054.45 ± 40 kg/m3 | mass density (303.15 K, x2 = 0.3619): 1045.26 ± 40 kg/m3 | mass density (303.15 K, x2 = 0.4282): 1024.01 ± 40 kg/m3 | mass density (303.15 K, x2 = 0.4911): 1004.69 ± 40 kg/m3 | mass density (303.15 K, x2 = 0.5538): 986.2 ± 40 kg/m3 | mass density (303.15 K, x2 = 0.6132): 969.33 ± 40 kg/m3 | mass density (303.15 K, x2 = 0.6739): 952.71 ± 40 kg/m3 | mass density (303.15 K, x2 = 0.7428): 934.53 ± 40 kg/m3 | mass density (303.15 K, x2 = 0.8023): 919.3 ± 40 kg/m3 | mass density (303.15 K, x2 = 0.8631): 904.39 ± 40 kg/m3 | mass density (303.15 K, x2 = 0.9347): 887.3 ± 40 kg/m3 | mass density (313.15 K, x2 = 0): 1161.28 ± 40 kg/m3 | mass density (313.15 K, x2 = 0.0643): 1135.09 ± 40 kg/m3 | mass density (313.15 K, x2 = 0.1138): 1115.77 ± 40 kg/m3 | mass density (313.15 K, x2 = 0.1729): 1093.62 ± 40 kg/m3 | mass density (313.15 K, x2 = 0.2483): 1066.72 ± 40 kg/m3 | mass density (313.15 K, x2 = 0.3248): 1040.87 ± 40 kg/m3 | mass density (313.15 K, x2 = 0.3958): 1018.07 ± 40 kg/m3 | mass density (313.15 K, x2 = 0.4587): 998.77 ± 40 kg/m3 | mass density (313.15 K, x2 = 0.518): 981.29 ± 40 kg/m3 | mass density (313.15 K, x2 = 0.5628): 968.51 ± 40 kg/m3 | mass density (313.15 K, x2 = 0.6345): 948.78 ± 40 kg/m3 | mass density (313.15 K, x2 = 0.6948): 932.83 ± 40 kg/m3 | mass density (313.15 K, x2 = 0.7539): 917.73 ± 40 kg/m3 | mass density (313.15 K, x2 = 0.8039): 905.34 ± 40 kg/m3 | mass density (313.15 K, x2 = 0.8621): 891.32 ± 40 kg/m3 | mass density (313.15 K, x2 = 0.9357): 874.17 ± 40 kg/m3 | mass density (323.15 K, x2 = 0): 1142.43 ± 40 kg/m3 | mass density (323.15 K, x2 = 0.0527): 1120.67 ± 40 kg/m3 | mass density (323.15 K, x2 = 0.1328): 1089.28 ± 40 kg/m3 | mass density (323.15 K, x2 = 0.1842): 1070.13 ± 40 kg/m3 | mass density (323.15 K, x2 = 0.2487): 1047.11 ± 40 kg/m3 | mass density (323.15 K, x2 = 0.3398): 1016.41 ± 40 kg/m3 | mass density (323.15 K, x2 = 0.3781): 1004.09 ± 40 kg/m3 | mass density (323.15 K, x2 = 0.4487): 982.22 ± 40 kg/m3 | mass density (323.15 K, x2 = 0.5031): 966.07 ± 40 kg/m3 | mass density (323.15 K, x2 = 0.5529): 951.78 ± 40 kg/m3 | mass density (323.15 K, x2 = 0.6249): 931.92 ± 40 kg/m3 | mass density (323.15 K, x2 = 0.6843): 916.18 ± 40 kg/m3 | mass density (323.15 K, x2 = 0.7451): 900.64 ± 40 kg/m3 | mass density (323.15 K, x2 = 0.8146): 883.52 ± 40 kg/m3 | mass density (323.15 K, x2 = 0.8702): 870.29 ± 40 kg/m3 | mass density (323.15 K, x2 = 0.9429): 853.56 ± 40 kg/m3 | mass density (333.15 K, x2 = 0): 1123.99 ± 40 kg/m3 | mass density (333.15 K, x2 = 0.0578): 1099.25 ± 40 kg/m3 | mass density (333.15 K, x2 = 0.1298): 1070.06 ± 40 kg/m3 | mass density (333.15 K, x2 = 0.1844): 1049.03 ± 40 kg/m3 | mass density (333.15 K, x2 = 0.2358): 1030.04 ± 40 kg/m3 | mass density (333.15 K, x2 = 0.3139): 1002.61 ± 40 kg/m3 | mass density (333.15 K, x2 = 0.3847): 979.1 ± 40 kg/m3 | mass density (333.15 K, x2 = 0.4412): 961.2 ± 40 kg/m3 | mass density (333.15 K, x2 = 0.5055): 941.69 ± 40 kg/m3 | mass density (333.15 K, x2 = 0.5572): 926.61 ± 40 kg/m3 | mass density (333.15 K, x2 = 0.6148): 910.43 ± 40 kg/m3 | mass density (333.15 K, x2 = 0.6627): 897.43 ± 40 kg/m3 | mass density (333.15 K, x2 = 0.7365): 878.16 ± 40 kg/m3 | mass density (333.15 K, x2 = 0.7947): 863.56 ± 40 kg/m3 | mass density (333.15 K, x2 = 0.8634): 846.95 ± 40 kg/m3 | mass density (333.15 K, x2 = 0.9354): 830.22 ± 40 kg/m3 | mass density (343.15 K, x2 = 0): 1105.98 ± 40 kg/m3 | mass density (343.15 K, x2 = 0.0527): 1081.81 ± 40 kg/m3 | mass density (343.15 K, x2 = 0.1278): 1049.31 ± 40 kg/m3 | mass density (343.15 K, x2 = 0.1782): 1028.67 ± 40 kg/m3 | mass density (343.15 K, x2 = 0.2476): 1001.67 ± 40 kg/m3 | mass density (343.15 K, x2 = 0.3279): 972.32 ± 40 kg/m3 | mass density (343.15 K, x2 = 0.3841): 952.89 ± 40 kg/m3 | mass density (343.15 K, x2 = 0.4529): 930.23 ± 40 kg/m3 | mass density (343.15 K, x2 = 0.5139): 911.13 ± 40 kg/m3 | mass density (343.15 K, x2 = 0.5732): 893.36 ± 40 kg/m3 | mass density (343.15 K, x2 = 0.6241): 878.7 ± 40 kg/m3 | mass density (343.15 K, x2 = 0.6742): 864.77 ± 40 kg/m3 | mass density (343.15 K, x2 = 0.7246): 851.23 ± 40 kg/m3 | mass density (343.15 K, x2 = 0.7726): 838.75 ± 40 kg/m3 | mass density (343.15 K, x2 = 0.8523): 818.84 ± 40 kg/m3 | mass density (343.15 K, x2 = 0.9274): 800.96 ± 40 kg/m3 | mass density (353.15 K, x2 = 0): 1088.38 ± 40 kg/m3 | mass density (353.15 K, x2 = 0.0639): 1056.4 ± 40 kg/m3 | mass density (353.15 K, x2 = 0.1128): 1033.26 ± 40 kg/m3 | mass density (353.15 K, x2 = 0.1832): 1001.84 ± 40 kg/m3 | mass density (353.15 K, x2 = 0.2478): 974.79 ± 40 kg/m3 | mass density (353.15 K, x2 = 0.3255): 944.31 ± 40 kg/m3 | mass density (353.15 K, x2 = 0.3859): 922.03 ± 40 kg/m3 | mass density (353.15 K, x2 = 0.4628): 895.28 ± 40 kg/m3 | mass density (353.15 K, x2 = 0.5248): 874.93 ± 40 kg/m3 | mass density (353.15 K, x2 = 0.5819): 857.07 ± 40 kg/m3 | mass density (353.15 K, x2 = 0.6249): 844.14 ± 40 kg/m3 | mass density (353.15 K, x2 = 0.6829): 827.36 ± 40 kg/m3 | mass density (353.15 K, x2 = 0.7249): 815.64 ± 40 kg/m3 | mass density (353.15 K, x2 = 0.7821): 800.25 ± 40 kg/m3 | mass density (353.15 K, x2 = 0.8698): 777.8 ± 40 kg/m3
